Tested on: patients with Type 1 diabetes
Experiment: Liquid meal challenge with IV insulin alone or IV insulin-glucagon co-infusion (4:1)
Format: in vivo, human
Settings: for Requiring IV glucose rescue: subjects of eleven, rescue if plasma glucose dropped to 50 mg/dl
Experimental: Referring now to FIG. 12, a study protocol conducted by the applicant in human patients with Type 1 diabetes is illustrated, consistent with the present inventive concepts. […] The liquid meal challenge allows a clinically relevant assessment of plasma glucose rise and fall. […] By protocol, if plasma glucose dropped to 50 mg/dl, a variable glucose infusion was applied to maintain the glucose level at approximately 50 mg/dl, to avoid more serious hypoglycemia from occurring.
FIG. 13 illustrates the glucose excursion following the meal challenge for eleven patients (also referred to as “subjects” herein). […] The glucose excursion data is also presented below in Table 1, which compares peak plasma glucose levels and AUCs (area under curve) for the two treatment groups.

## insulin
7 subjects whose glucose fell below the pre-meal value in the last 30 minutes
  subjects that had to be rescued: 5
7 subjects whose glucose fell below the pre-meal value, last 30 minutes
  average glucose infusion rate: 5.9 ± 2.2 mg/kg/min
Eleven Type 1 diabetes patients
  Time <70 mg/dl: 20 ± 7%
Eleven Type 1 diabetes patients, 0-120 min after liquid meal
  ΔPG 0-120AUC: 8162 ± 1514 mg·min/dL
Eleven Type 1 diabetes patients, 0-180 min after liquid meal
  ΔPG 0-180AUC: 10501 ± 3014 mg·min/dL
Eleven Type 1 diabetes patients, after liquid meal
  Peak PG: 224 ± 18 mg/dL
Eleven Type 1 diabetes patients, before liquid meal
  Fasting PG: 121 ± 5 mg/dL
Four patients
  sympathetic central nervous system response to hypoglycemia (venous plasma norepinephrine and epinephrine): elevations of venous plasma norepinephrine and epinephrine
In all subjects (eleven-subject comparison)
  average glucose infusion rate over the last 30 minutes: 3.8 ± 1.6 mg/kg/min
Lowest point during insulin-alone arm vs equivalent time point during insulin-glucagon arm
  PG nadir: 51 ± 4.0 mg/dL
Seven subjects with plasma glucose <80 mg/dl in insulin-alone arm, matching time point in insulin-glucagon arm
  average plasma glucose nadir: 50 ± 4 mg/dL
Listed as Insulin-Alone
  Requiring IV glucose rescue: 5/11
Listed as insulin-alone
  Requiring IV glucose rescue: Five of eleven
Subset of four patients with more complete hormone analysis
  patients rescued with glucose infusions: Three out of the four
